How the values were obtained:
Type in all cases: in vivo, Arabidopsis thaliana
[1] = system: CDKA; experiment: CDKA activity assay on protein extracted from proliferating third leaves; conditions: wild type; 10 and 24 h after transfer to 25 mM mannitol or 5 μM ACC
Description: At 9 DAS, when the third leaf is fully proliferating, seedlings were transferred to plates containing control medium or medium supplemented with 25 mM mannitol (Sigma-Aldrich) or 5 μM ACC (Sigma-Aldrich) by gently lifting the nylon mesh with forceps. For the CDKA activity assay the transfer was done at 11 DAS; at this stage, the third leaf is still dividing and can be quickly harvested without the need for RNAlater solution (see below) that would inhibit CDKA activity. All transfers were performed 2-3 h into the day.
Total soluble protein was extracted from 50 leaves by adding extraction buffer (Van Leene et al., 2007) to ground samples, followed by two freeze-thaw steps and two centrifugation steps (20,817 g, 10 min, 4° C.), whereby the supernatant was collected each time. Equal amounts of total protein were incubated with p9^CKS1Hs-sepharose beads (De Veylder et al., 1997) and kinase assays were performed as described (De Veylder et al., 1997) with histone H1 as CDK substrate. To correct for the amount of CDKA protein purified by p9^CKS1Hs-sepharose beads, an aliquot of each sample was used for protein gel blot analysis with primary rabbit anti-PSTAIRE antibodies (Santa Cruz) (diluted 1:5000) and a secondary horseradish peroxidase-conjugated donkey anti-rabbit antibodies (GE-Healthcare) (diluted 1:10,000). Proteins were detected by chemiluminescence (Western Lightning Plus ECL, PerkinElmer Life Sciences). CDK activity and CDKA amount were quantified with ImageJ v1.41o. Control samples were arbitrarily set at 100%.

[2] = system: proliferating leaf primordia transcriptome; experiment: ATH1 whole-genome transcript profiling of proliferating leaf primordia
Text: To obtain a better understanding of the molecular mechanisms inhibiting cell division during stress, we subjected proliferating leaf primordia to whole-genome transcript profiling. […] Selected microarray data could be validated with a nCounter platform containing probes for 100 genes involved in growth, stress, and hormonal regulation. Differential transcripts were used to construct Venn diagrams and were subjected to k-means clustering. […] Subsequently, the differential transcripts were examined with PageMan to calculate the functional overrepresentation of MapMan categories (Thimm et al., 2004; Usadel et al., 2006) and were compared to selected publicly available microarray experiments (see “Materials and Methods”). To explain the reduced cell proliferation rates, cell cycle genes were among the prime suspects. […] Strikingly, the magnitude of change for all of the above-mentioned cell cycle genes was similar (approximately 30%) and occurred only at 24 h (FIG. 6A). Besides the cell cycle-related transcripts, we were particularly interested in genes related to hormonal signaling.
Leaf 3 was harvested from plants at 1.5, 3, 12, and 24 h. Briefly, whole seedlings were harvested in an excess of RNAlater solution (Ambion) and, after overnight storage at 4° C., dissected under a binocular microscope on a cooling plate with precision microscissors. Dissected leaves were transferred to a new tube, frozen in liquid nitrogen, and ground with a Retsch machine and 3-mm metal balls. Samples were obtained from three independent biological experiments and from multiple plates within the experiment.
RNA was extracted with TriZol (Invitrogen) according to the manufacturer's instructions with 4 μg of glycogen as carrier during the precipitation step. RNA samples were subjected to DNA digestion with RNase-free DNase I (Roche) and subsequently cleaned up with the RNeasy Mini Kit (Qiagen).
RNA samples were hybridized to single Affymetrix ATH1 Genome arrays at the VIB Microarray Facility (Leuven, Belgium). Expression data were processed with Robust Multichip Average (RMA) (background correction, normalization, and summarization) as implemented in BioConductor (Irizarry et al., 2003a, 2003b; Gentleman et al., 2004). An alternative cdf (“tinesath1cdf”) was used, in which each probe is uniquely assigned to one transcript (Casneuf et al., 2007) (http://www.bioconductor.org/packages/release/data/experiment/html/tinesath1cdf.html). The BioConductor package Limma was used to identify differentially expressed genes (Smyth, 2004). For comparisons of interest, moderated t statistics were calculated using the eBayes function and P values were corrected for multiple testing for each contrast separately using topTable. False-discovery rate (FDR)-corrected p-value<0.05 was used as a cut-off (Benjamini and Hochberg, 1995).

[3] = system: CYCB1;1:Dbox-GUS reporter line; experiment: CYCB1;1:DBox-GUS staining of mitotic activity in leaf 3; conditions: 48 h after transfer to 25 mM mannitol or 5 μM ACC
Description: Arabidopsis seedlings were germinated and grown on nylon meshes overlaying control medium until 9 days after stratification (DAS), when the third true leaf is fully proliferating (Skirycz et al., 2010), and subsequently transferred to control or mannitol-containing medium (FIGS. 1A to 10). Kinematic analysis was performed, whereby leaves were harvested daily throughout development of leaf 3 (9-20 DAS) and based on drawings of the abaxial epidermis cell number, cell area, number of guard cells and cell division and cell expansion rates were calculated (De Veylder et al., 2001). […] Leaf and plant morphology were not altered by mannitol (FIG. 2C). Cell expansion was also affected by stress and the reduced final leaf area was a combination of fewer and smaller cells (FIG. 2D). The stomatal index, which represents the number of stomata as a fraction of the total number of cells, was reduced as well (FIG. 2E). To learn more about the mechanisms underlying the rapid reduction of cell division upon stress onset, we harvested leaf samples daily after transfer. As a measure of cellular differentiation, the ploidy distribution was examined by flow cytometry. […] In stressed leaves, 4C nuclei started to accumulate approximately one day earlier than in controls at the expense of 2C nuclei (FIG. 3A). […]

[4] = 1.5 h after transfer to 25 mM mannitol
[5] = 3 h after transfer to 25 mM mannitol
[6] = 12 h after transfer to 25 mM mannitol
[7] = 24 h after transfer to 25 mM mannitol

Q: What does the source list for `OC[C@@H](O)[C@@H](O)[C@H](O)[C@H](O)CO` [mannitol]?
A: CDKA activity [1]: decreased as early as 10 h after stress onset and remained low at 24 h; number of down-regulated transcripts [2, 4]: 31; number of up-regulated transcripts [2, 4]: 27; number of down-regulated transcripts [2, 5]: 145; number of up-regulated transcripts [2, 5]: 189; number of down-regulated transcripts [2, 6]: 84; number of up-regulated transcripts [2, 6]: 351; magnitude of change (down-regulation) of cell cycle genes ([2]; 24 h after stress onset): approximately 30%; number of down-regulated transcripts [2, 7]: 622; number of up-regulated transcripts [2, 7]: 886; number of mitotic cells (CYCB1;1:DBox-GUS activity) [3]: reduced number of mitotic cells
